Results published in ChEMBL document CHEMBL3351292, “Structure-Based Design and Synthesis of Potent Cyclic Peptides Inhibiting the YAP-TEAD Protein-Protein Interaction” (ACS Med Chem Lett, 2014).
Where a SMILES comes first, the peptide text is derived from it.

Biological target: Transcriptional coactivator YAP1/Transcriptional enhancer factor TEF-1 (Homo sapiens) (UniProt P46937+P28347)
Assay: Inhibition of YAP/ GST-TEAD1 (unknown origin) interaction at 50 uM by surface plasmon resonance assay
Format: protein assay

Sequence of Transcriptional coactivator YAP1/Transcriptional enhancer factor TEF-1 (Homo sapiens) (P28347 whole entry, looked up): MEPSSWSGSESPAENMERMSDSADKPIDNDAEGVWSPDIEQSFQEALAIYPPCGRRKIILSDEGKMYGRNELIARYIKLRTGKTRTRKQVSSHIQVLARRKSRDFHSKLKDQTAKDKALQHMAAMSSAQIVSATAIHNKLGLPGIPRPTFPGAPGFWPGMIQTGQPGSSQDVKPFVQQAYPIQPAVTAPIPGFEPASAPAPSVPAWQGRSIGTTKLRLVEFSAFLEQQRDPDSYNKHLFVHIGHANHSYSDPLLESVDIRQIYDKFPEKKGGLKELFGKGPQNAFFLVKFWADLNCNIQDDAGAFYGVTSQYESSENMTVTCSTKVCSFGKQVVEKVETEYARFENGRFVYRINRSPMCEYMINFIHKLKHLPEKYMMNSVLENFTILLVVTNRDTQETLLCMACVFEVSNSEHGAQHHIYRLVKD
Sequence of Transcriptional coactivator YAP1/Transcriptional enhancer factor TEF-1 (Homo sapiens) (P46937 whole entry, looked up): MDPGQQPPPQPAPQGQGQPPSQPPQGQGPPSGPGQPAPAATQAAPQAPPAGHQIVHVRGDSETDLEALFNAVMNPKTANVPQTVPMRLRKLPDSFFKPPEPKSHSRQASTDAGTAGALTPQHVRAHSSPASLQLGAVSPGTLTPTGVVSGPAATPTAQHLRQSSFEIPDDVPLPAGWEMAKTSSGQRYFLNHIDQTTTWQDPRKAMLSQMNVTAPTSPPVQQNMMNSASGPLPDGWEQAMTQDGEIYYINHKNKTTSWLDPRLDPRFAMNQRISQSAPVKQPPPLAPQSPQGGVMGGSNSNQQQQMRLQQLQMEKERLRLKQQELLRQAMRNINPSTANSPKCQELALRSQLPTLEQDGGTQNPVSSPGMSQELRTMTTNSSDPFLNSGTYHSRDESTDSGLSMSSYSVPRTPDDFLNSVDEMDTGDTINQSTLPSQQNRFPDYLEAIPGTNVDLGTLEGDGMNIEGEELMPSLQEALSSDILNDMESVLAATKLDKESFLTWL

| Compound | inhibition |
| --- | --- |
| CSCC[C@H](NC(=O)[C@@H]1CCCN1C(=O)[C@@H](NC(=O)[C@@H](NC(=O)[C@H](CCC(N)=O)NC(C)=O)[C@@H](C)O)C(C)C)C(=O)N[C@@H](CCCNC(=N)N)C(=O)N[C@@H](CC(C)C)C(=O)N[C@@H](CCCNC(=N)N)C(=O)N[C@@H](CCCCN)C(=O)N[C@@H](CC(C)C)C(=O)N1CCC[C@H]1C(=O)N[C@@H](CC(=O)O)C(=O)N[C@@H](CO)C(=O)N[C@@H](Cc1ccccc1)C(=O)N[C@@H](Cc1ccccc1)C(=O)N[C@@H](CCCCN)C(=O)N1CCC[C@H]1C(=O)N1CCC[C@H]1C(=O)N[C@@H](CCC(=O)O)C(N)=O | 59% |
| CSCC[C@H](NC(=O)[C@@H]1CCCN1C(=O)[C@@H](NC(=O)[C@@H](NC(C)=O)[C@@H](C)O)C(C)C)C(=O)N[C@@H](CCCNC(=N)N)C(=O)N[C@@H](CC(C)C)C(=O)N[C@@H](CCCNC(=N)N)C(=O)N[C@@H](CCCCN)C(=O)N[C@@H](CC(C)C)C(=O)N1CCC[C@H]1C(=O)N[C@@H](CC(=O)O)C(=O)N[C@@H](CO)C(=O)N[C@@H](Cc1ccccc1)C(=O)N[C@@H](Cc1ccccc1)C(=O)N[C@@H](CCCCN)C(=O)N1CCC[C@H]1C(=O)N1CCC[C@H]1C(=O)N[C@@H](CCC(=O)O)C(N)=O | 60% |
| CSCC[C@H](NC(=O)[C@@H]1CCCN1C(=O)[C@@H](NC(=O)[C@H](C)NC(=O)[C@H](CCC(N)=O)NC(=O)[C@@H]1CCCN1C(C)=O)C(C)C)C(=O)N[C@@H](CCCNC(=N)N)C(=O)N[C@@H](CC(C)C)C(=O)N[C@@H](CCCNC(=N)N)C(=O)N[C@@H](CCCCN)C(=O)N[C@@H](CC(C)C)C(=O)N1CCC[C@H]1C(=O)N[C@@H](CC(=O)O)C(=O)N[C@@H](CO)C(=O)N[C@@H](Cc1ccccc1)C(=O)N[C@@H](Cc1ccccc1)C(=O)N[C@@H](CCCCN)C(=O)N1CCC[C@H]1C(=O)N1CCC[C@H]1C(=O)N[C@@H](CCC(=O)O)C(N)=O | 52% |
| CSCC[C@H](NC(C)=O)C(=O)N[C@@H](CCCNC(=N)N)C(=O)N[C@@H](CC(C)C)C(=O)N[C@@H](CCCNC(=N)N)C(=O)N[C@@H](CCCCN)C(=O)N[C@@H](CC(C)C)C(=O)N1CCC[C@H]1C(=O)N[C@@H](CC(=O)O)C(=O)N[C@@H](CO)C(=O)N[C@@H](Cc1ccccc1)C(=O)N[C@@H](Cc1ccccc1)C(=O)N[C@@H](CCCCN)C(=O)N1CCC[C@H]1C(=O)N1CCC[C@H]1C(=O)N[C@@H](CCC(=O)O)C(N)=O (Ac-MRLRKLPDSFFKPPE-NH2) | 12% |
| CSCC[C@H](NC(=O)[C@@H]1CCCN1C(C)=O)C(=O)N[C@@H](CCCNC(=N)N)C(=O)N[C@@H](CC(C)C)C(=O)N[C@@H](CCCNC(=N)N)C(=O)N[C@@H](CCCCN)C(=O)N[C@@H](CC(C)C)C(=O)N1CCC[C@H]1C(=O)N[C@@H](CC(=O)O)C(=O)N[C@@H](CO)C(=O)N[C@@H](Cc1ccccc1)C(=O)N[C@@H](Cc1ccccc1)C(=O)N[C@@H](CCCCN)C(=O)N1CCC[C@H]1C(=O)N1CCC[C@H]1C(=O)N[C@@H](CCC(=O)O)C(N)=O (Ac-PMRLRKLPDSFFKPPE-NH2) | 25% |
| CSCC[C@H](NC(=O)[C@@H]1CCCN1C(=O)[C@H](C)NC(=O)[C@@H](NC(=O)[C@H](CCC(N)=O)NC(=O)[C@@H]1CCCN1C(C)=O)[C@@H](C)O)C(=O)N[C@@H](CCCNC(=N)N)C(=O)N[C@@H](CC(C)C)C(=O)N[C@@H](CCCNC(=N)N)C(=O)N[C@@H](CCCCN)C(=O)N[C@@H](CC(C)C)C(=O)N1CCC[C@H]1C(=O)N[C@@H](CC(=O)O)C(=O)N[C@@H](CO)C(=O)N[C@@H](Cc1ccccc1)C(=O)N[C@@H](Cc1ccccc1)C(=O)N[C@@H](CCCCN)C(=O)N1CCC[C@H]1C(=O)N1CCC[C@H]1C(=O)N[C@@H](CCC(=O)O)C(N)=O (Ac-PQTAPMRLRKLPDSFFKPPE-NH2) | 26% |
| CSCC[C@H](NC(=O)[C@H](C)NC(=O)[C@@H](NC(=O)[C@@H](NC(=O)[C@H](CCC(N)=O)NC(=O)[C@@H]1CCCN1C(C)=O)[C@@H](C)O)C(C)C)C(=O)N[C@@H](CCCNC(=N)N)C(=O)N[C@@H](CC(C)C)C(=O)N[C@@H](CCCNC(=N)N)C(=O)N[C@@H](CCCCN)C(=O)N[C@@H](CC(C)C)C(=O)N1CCC[C@H]1C(=O)N[C@@H](CC(=O)O)C(=O)N[C@@H](CO)C(=O)N[C@@H](Cc1ccccc1)C(=O)N[C@@H](Cc1ccccc1)C(=O)N[C@@H](CCCCN)C(=O)N1CCC[C@H]1C(=O)N1CCC[C@H]1C(=O)N[C@@H](CCC(=O)O)C(N)=O (Ac-PQTVAMRLRKLPDSFFKPPE-NH2) | 33% |
| CC(=O)N1CCC[C@H]1C(=O)N[C@@H](CCC(N)=O)C(=O)N[C@H](C(=O)N[C@H](C(=O)N1CCC[C@H]1C(=O)N[C@@H](C)C(=O)N[C@@H](CCCNC(=N)N)C(=O)N[C@@H](CC(C)C)C(=O)N[C@@H](CCCNC(=N)N)C(=O)N[C@@H](CCCCN)C(=O)N[C@@H](CC(C)C)C(=O)N1CCC[C@H]1C(=O)N[C@@H](CC(=O)O)C(=O)N[C@@H](CO)C(=O)N[C@@H](Cc1ccccc1)C(=O)N[C@@H](Cc1ccccc1)C(=O)N[C@@H](CCCCN)C(=O)N1CCC[C@H]1C(=O)N1CCC[C@H]1C(=O)N[C@@H](CCC(=O)O)C(N)=O)C(C)C)[C@@H](C)O (Ac-PQTVPARLRKLPDSFFKPPE-NH2) | 1.3% |
| CSCC[C@H](NC(=O)[C@@H]1CCCN1C(=O)[C@@H](NC(=O)[C@@H](NC(=O)[C@H](CCC(N)=O)NC(=O)[C@@H]1CCCN1C(C)=O)[C@@H](C)O)C(C)C)C(=O)N[C@@H](C)C(=O)N[C@@H](CC(C)C)C(=O)N[C@@H](CCCNC(=N)N)C(=O)N[C@@H](CCCCN)C(=O)N[C@@H](CC(C)C)C(=O)N1CCC[C@H]1C(=O)N[C@@H](CC(=O)O)C(=O)N[C@@H](CO)C(=O)N[C@@H](Cc1ccccc1)C(=O)N[C@@H](Cc1ccccc1)C(=O)N[C@@H](CCCCN)C(=O)N1CCC[C@H]1C(=O)N1CCC[C@H]1C(=O)N[C@@H](CCC(=O)O)C(N)=O (Ac-PQTVPMALRKLPDSFFKPPE-NH2) | 23% |
| CSCC[C@H](NC(=O)[C@@H]1CCCN1C(=O)[C@@H](NC(=O)[C@@H](NC(=O)[C@H](CCC(N)=O)NC(=O)[C@@H]1CCCN1C(C)=O)[C@@H](C)O)C(C)C)C(=O)N[C@@H](CCCNC(=N)N)C(=O)N[C@@H](C)C(=O)N[C@@H](CCCNC(=N)N)C(=O)N[C@@H](CCCCN)C(=O)N[C@@H](CC(C)C)C(=O)N1CCC[C@H]1C(=O)N[C@@H](CC(=O)O)C(=O)N[C@@H](CO)C(=O)N[C@@H](Cc1ccccc1)C(=O)N[C@@H](Cc1ccccc1)C(=O)N[C@@H](CCCCN)C(=O)N1CCC[C@H]1C(=O)N1CCC[C@H]1C(=O)N[C@@H](CCC(=O)O)C(N)=O (Ac-PQTVPMRARKLPDSFFKPPE-NH2) | 49% |
| CSCC[C@H](NC(=O)[C@@H]1CCCN1C(=O)[C@@H](NC(=O)[C@@H](NC(=O)[C@H](CCC(N)=O)NC(=O)[C@@H]1CCCN1C(C)=O)[C@@H](C)O)C(C)C)C(=O)N[C@@H](CCCNC(=N)N)C(=O)N[C@@H](CC(C)C)C(=O)N[C@@H](C)C(=O)N[C@@H](CCCCN)C(=O)N[C@@H](CC(C)C)C(=O)N1CCC[C@H]1C(=O)N[C@@H](CC(=O)O)C(=O)N[C@@H](CO)C(=O)N[C@@H](Cc1ccccc1)C(=O)N[C@@H](Cc1ccccc1)C(=O)N[C@@H](CCCCN)C(=O)N1CCC[C@H]1C(=O)N1CCC[C@H]1C(=O)N[C@@H](CCC(=O)O)C(N)=O (Ac-PQTVPMRLAKLPDSFFKPPE-NH2) | 1.7% |
